Among the data in ChEMBL document CHEMBL4417621, “Methods to identify tas2r modulators” (2013) are Ratio and Activity values, retold here.

Common to all, as to assay type: functional, cell-based
Experiment [1] has as its target T1, Taste receptor type 2 member 1 (Homo sapiens) (UniProt Q9NYW7).
T1 sequence (whole entry): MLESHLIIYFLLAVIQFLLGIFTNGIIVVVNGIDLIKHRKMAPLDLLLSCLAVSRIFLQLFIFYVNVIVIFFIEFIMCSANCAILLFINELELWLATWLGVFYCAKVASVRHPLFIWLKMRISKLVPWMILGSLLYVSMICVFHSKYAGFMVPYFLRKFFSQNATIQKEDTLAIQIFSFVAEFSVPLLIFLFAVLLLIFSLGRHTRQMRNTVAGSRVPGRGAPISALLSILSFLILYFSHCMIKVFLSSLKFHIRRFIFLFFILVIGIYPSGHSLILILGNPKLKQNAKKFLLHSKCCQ
The experiment can be described thus: Activation of full-length human TAS2R1 expressed in HEK293T/Galpha16-gustducin 44 cells assessed as effect on calcium flux by measuring deltaF/F0 ratio at 1.5625 mM by Fluo-4 dye based FLIPR assay. On the technique in general: A change in cytosolic calcium serves as a functional read-out for many receptors and channels.

In experiment [2] the target is T1, Taste receptor type 2 member 1 (Homo sapiens). The experiment can be described thus: Activation of full-length human TAS2R1 expressed in HEK293T/Galpha16-gustducin 44 cells assessed as effect on calcium flux by measuring deltaF/F0 ratio at 6.25 mM by Fluo-4 dye based FLIPR assay.
Experiment [3] addresses T2, Taste receptor type 2 member 10 (Homo sapiens) (UniProt Q9NYW0).
T2 sequence (whole entry): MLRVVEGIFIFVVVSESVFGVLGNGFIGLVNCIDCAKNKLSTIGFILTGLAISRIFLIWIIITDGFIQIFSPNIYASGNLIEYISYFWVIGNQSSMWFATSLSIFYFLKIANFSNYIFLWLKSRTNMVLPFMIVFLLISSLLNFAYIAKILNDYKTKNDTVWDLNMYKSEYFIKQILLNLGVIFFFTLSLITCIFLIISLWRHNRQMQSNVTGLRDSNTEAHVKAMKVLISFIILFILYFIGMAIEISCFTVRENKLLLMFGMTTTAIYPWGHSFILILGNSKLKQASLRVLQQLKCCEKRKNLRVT
The experiment can be described thus: Activation of full-length human TAS2R10 expressed in HEK293T/Galpha16-gustducin 44 cells assessed as effect on calcium flux by measuring deltaF/F0 ratio at 50 mM by Fluo-4 dye based FLIPR assay.

Experiment [4] has as its target T1, Taste receptor type 2 member 1 (Homo sapiens). The experiment can be described thus: Activation of full-length human TAS2R1 expressed in HEK293T/Galpha16-gustducin 44 cells assessed as effect on calcium flux by measuring deltaF/F0 ratio at 25 mM by Fluo-4 dye based FLIPR assay.
For experiment [5], the target named is T3, Taste receptor type 2 member 31 (Homo sapiens) (UniProt P59538).
T3 sequence (whole entry): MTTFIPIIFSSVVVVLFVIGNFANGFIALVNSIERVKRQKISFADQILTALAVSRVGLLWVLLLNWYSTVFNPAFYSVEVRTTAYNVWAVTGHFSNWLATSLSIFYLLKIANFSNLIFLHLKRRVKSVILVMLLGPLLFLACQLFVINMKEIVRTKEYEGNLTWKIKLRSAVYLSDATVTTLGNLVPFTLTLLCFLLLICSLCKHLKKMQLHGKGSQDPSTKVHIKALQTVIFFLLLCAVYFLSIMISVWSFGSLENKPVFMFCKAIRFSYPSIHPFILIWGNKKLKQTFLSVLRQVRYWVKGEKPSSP
The experiment can be described thus: Activation of full-length human TAS2R44 expressed in HEK293T/Galpha16-gustducin 44 cells assessed as effect on calcium flux by measuring deltaF/F0 ratio at 0.3906 mM by Fluo-4 dye based FLIPR assay (reference value: […] +/ - 0.002).

Experiment [6] addresses T4, Taste receptor type 2 member 46 (Homo sapiens) (UniProt P59540).
T4 sequence (whole entry): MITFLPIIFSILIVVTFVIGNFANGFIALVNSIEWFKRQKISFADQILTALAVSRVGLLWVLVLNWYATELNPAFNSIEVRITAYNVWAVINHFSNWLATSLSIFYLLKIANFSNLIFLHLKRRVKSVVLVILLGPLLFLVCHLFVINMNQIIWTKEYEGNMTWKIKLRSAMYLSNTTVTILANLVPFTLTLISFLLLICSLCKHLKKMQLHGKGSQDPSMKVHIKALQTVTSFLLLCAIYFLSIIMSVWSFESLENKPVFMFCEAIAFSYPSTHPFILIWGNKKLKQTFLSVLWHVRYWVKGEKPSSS
The experiment can be described thus: Activation of full-length human TAS2R46 expressed in HEK293T/Galpha16-gustducin 44 cells assessed as effect on calcium flux by measuring deltaF/F0 ratio at 25 mM by Fluo-4 dye based FLIPR assay.

Experiment [7] has as its target T1, Taste receptor type 2 member 1 (Homo sapiens). The experiment can be described thus: Activation of full-length human TAS2R1 expressed in HEK293T/Galpha16-gustducin 44 cells assessed as effect on calcium flux by measuring deltaF/F0 ratio at 50 mM by Fluo-4 dye based FLIPR assay.
Experiment [8] concerns the target T3, Taste receptor type 2 member 31 (Homo sapiens). The experiment can be described thus: Activation of full-length human TAS2R44 expressed in HEK293T/Galpha16-gustducin 44 cells assessed as effect on calcium flux by measuring deltaF/F0 ratio at 0.7813 mM by Fluo-4 dye based FLIPR assay (reference value: […] +/ - 0.002).
Experiment [9] addresses T4, Taste receptor type 2 member 46 (Homo sapiens). The experiment can be described thus: Activation of full-length human TAS2R46 expressed in HEK293T/Galpha16-gustducin 44 cells assessed as effect on calcium flux by measuring deltaF/F0 ratio at 6.25 mM by Fluo-4 dye based FLIPR assay.
Experiment [10] has the same target. The experiment can be described thus: Activation of full-length human TAS2R46 expressed in HEK293T/Galpha16-gustducin 44 cells assessed as effect on calcium flux by measuring deltaF/F0 ratio at 12.5 mM by Fluo-4 dye based FLIPR assay.
The target is the same in experiment [11]. The experiment can be described thus: Activation of full-length human TAS2R46 expressed in HEK293T/Galpha16-gustducin 44 cells assessed as effect on calcium flux by measuring deltaF/F0 ratio at 50 mM by Fluo-4 dye based FLIPR assay.
The target in experiment [12] is T3, Taste receptor type 2 member 31 (Homo sapiens). The experiment can be described thus: Activation of full-length human TAS2R44 expressed in HEK293T/Galpha16-gustducin 44 cells assessed as effect on calcium flux by measuring deltaF/F0 ratio at 50 mM by Fluo-4 dye based FLIPR assay (reference value: […] +/ - 0.016).
Experiment [13] deals with T4, Taste receptor type 2 member 46 (Homo sapiens). The experiment can be described thus: Activation of full-length human TAS2R46 expressed in HEK293T/Galpha16-gustducin 44 cells assessed as effect on calcium flux by measuring deltaF/F0 ratio at 100 mM by Fluo-4 dye based FLIPR assay.
For experiment [14], the target named is T2, Taste receptor type 2 member 10 (Homo sapiens). The experiment can be described thus: Activation of full-length human TAS2R10 expressed in HEK293T/Galpha16-gustducin 44 cells assessed as effect on calcium flux by measuring deltaF/F0 ratio at 1.5625 mM by Fluo-4 dye based FLIPR assay.
Experiment [15] deals with T4, Taste receptor type 2 member 46 (Homo sapiens). The experiment can be described thus: Activation of full-length human TAS2R46 expressed in HEK293T/Galpha16-gustducin 44 cells assessed as effect on calcium flux by measuring deltaF/F0 ratio at 1.5625 mM by Fluo-4 dye based FLIPR assay.
Experiment [16] shares this target. The experiment can be described thus: Activation of full-length human TAS2R46 expressed in HEK293T/Galpha16-gustducin 44 cells assessed as effect on calcium flux by measuring deltaF/F0 ratio by Fluo-4 dye based FLIPR assay.
Experiment [17] has as its target T1, Taste receptor type 2 member 1 (Homo sapiens). The experiment can be described thus: Activation of full-length human TAS2R1 expressed in HEK293T/Galpha16-gustducin 44 cells assessed as effect on calcium flux by measuring deltaF/F0 ratio at 0.7813 mM by Fluo-4 dye based FLIPR assay.

Turning to `OC[C@H]1O[C@H](O[C@]2(CCl)O[C@H](CCl)[C@@H](O)[C@@H]2O)[C@H](O)[C@@H](O)[C@H]1Cl` [SUCRALOSE], the Ratio in experiment [1] amounted to 0.047; in [2], 0.061; in [3] it was 0.212; in experiment [4], 0.104; in experiment [5], 0.023; in experiment [6] it was 0.106. In addition, the Ratio was determined as 0.197 in experiment [7]; 0.025 in experiment [8]; 0.057 in [9]; 0.075 in [10]; 0.171 in experiment [11]; 0.256 in experiment [12]. The Ratio in experiment [13] came out at 0.258; in experiment [14] it was 0.047; in experiment [15], 0.035; in experiment [17] it was 0.05. Further, in experiment [16], the Activity entry was “Dose-dependent effect”.
